Columns and labels:
Assay type in all cases: toxicity, cell-based
[1] = system: HEK-293T; assay: Incucyte cell viability with HEK293T; details: human, 10 µM, compound concentration 10 uM
[2] = system: Fibroblast; assay: Incucyte cell viability with human fibroblast; details: 10 µM, compound concentration 10 uM
[3] = system: U2OS; assay: Incucyte cell viability with U2OS; details: human, 10 µM, compound concentration 10 uM
Further: unitless GR value; below 1 slowed growth and below 0 cell loss.

Row | SMILES | Growth Rate ([1]; 6 h, replicate number 1) | Growth Rate ([1]; 12 h, replicate number 1) | Growth Rate ([1]; 18 h, replicate number 1) | Growth Rate ([1]; 24 h, replicate number 1) | Growth Rate ([2]; 0 h, replicate number 2) | Growth Rate ([2]; 6 h, replicate number 1) | Growth Rate ([2]; 6 h, replicate number 2) | Growth Rate ([2]; 12 h, replicate number 1) | Growth Rate ([2]; 12 h, replicate number 2) | Growth Rate ([2]; 18 h, replicate number 1) | Growth Rate ([2]; 18 h, replicate number 2) | Growth Rate ([2]; 24 h, replicate number 1) | Growth Rate ([2]; 24 h, replicate number 2) | Growth Rate ([3]; 6 h, replicate number 1) | Growth Rate ([3]; 6 h, replicate number 2) | Growth Rate ([3]; 12 h, replicate number 1) | Growth Rate ([3]; 12 h, replicate number 2) | Growth Rate ([3]; 18 h, replicate number 2) | Growth Rate ([3]; 24 h, replicate number 1) | Growth Rate ([3]; 24 h, replicate number 2) | also measured
1 | c1cc(-c2cnn3cc(-c4ccc(N5CCNCC5)cc4)cnc23)c2cccnc2c1 | -0.69 | -0.55 | -0.44 | -0.34 | -0.9 | -0.19 | -1 | -1 | -0.91 | -0.44 | -0.74 | 0.25 | -0.55 | -0.87 | -0.62 | -0.69 | -0.61 | -0.48 | -0.49 | -0.43 | Growth Rate ([1]; 0 h, replicate number 1): -0.92; Growth Rate ([1]; 0 h, replicate number 2): 0.43; Growth Rate ([1]; 6 h, replicate number 2): -0.96; Growth Rate ([1]; 12 h, replicate number 2): -0.77; Growth Rate ([1]; 18 h, replicate number 2): -0.58; Growth Rate ([1]; 24 h, replicate number 2): -0.45; Growth Rate ([3]; 0 h, replicate number 1): -0.73; Growth Rate ([3]; 18 h, replicate number 1): -0.57
2 | Cc1cc2nc(N3CCC(C(=O)NC4CCCC4)CC3)n(C(C)C)c2cc1C | 0.3 | 0.77 | 0.97 | 0.88 | – | 0.17 | – | 0.26 | 0.74 | 0.48 | 0.7 | 0.4 | 0.78 | – | 0.39 | 0.79 | 0.47 | 0.67 | 0.95 | 0.8 | Growth Rate ([2]; 0 h, replicate number 1): -1; Growth Rate ([3]; 0 h, replicate number 2): -0.6
3 | Cn1cnc(Cn2ccc3ccc(CNCc4[nH]c5ccccc5c4[C@H]4NC(=O)c5ccc(O)cc54)cc32)c1 | – | – | – | – | -0.84 | 0.19 | 0.48 | – | – | 0.68 | 0.8 | – | – | 0.88 | 0.3 | 0.98 | 0.81 | 0.67 | 0.91 | 0.9 | Growth Rate ([1]; 0 h, replicate number 1): -0.01; Growth Rate ([2]; 0 h, replicate number 1): -0.98; Growth Rate ([3]; 0 h, replicate number 2): 0.28
4 | C[C@@H]1C[C@H](N)C[C@H](c2ccncc2NC(=O)c2ccc(F)c(-c3c(F)cccc3F)n2)C1 [LGH-447] | -0.02 | 0.2 | 0.27 | 0.36 | 0.09 | – | 0.93 | 0.96 | 0.9 | 0.87 | 0.58 | 0.67 | 0.44 | -0.22 | – | 0.59 | – | – | 0.98 | 0.96 | Growth Rate ([1]; 6 h, replicate number 2): 0.11; Growth Rate ([1]; 12 h, replicate number 2): 0.54; Growth Rate ([1]; 18 h, replicate number 2): 0.54; Growth Rate ([1]; 24 h, replicate number 2): 0.57; Growth Rate ([3]; 18 h, replicate number 1): 0.82
